From patent US9096624B2 (OSI Pharmaceuticals, LLC, priority 2009, dated 2015)

What was measured:
[1] = target: T1, FAK (Homo sapiens, UniProt Q05397); experiment: biochemical
[2] = target: T1, FAK; experiment: Cell-based capture ELISA for inhibition of FAK autophosphorylation [pY397] in MiaPaCa2 cells
Protocol: Cell-Based Assays for Inhibition of FAK Autophosphorylation: MiaPaCa2 and U87MG
ELISA kit from Invitrogen (KHO0441).
Reagents Provided in Biosource FAK [pY397]
The cells were then suspended in cell assay medium.

[3] = MIA-PaCa2 cells, + 50% mouse plasma (Table 2), read-out: Mean FAK Cell Mechanistic IC50 + 50% mP MIA-PaCa2
[4] = MIA-PaCa2 cells on fibronectin, 2 h, no plasma, read-out: Mean FAK Cell Mechanistic IC50 MIA-PaCa2
[5] = MIA-PaCa2 cells, + 50% human plasma, read-out: Mean FAK Cell Mechanistic IC50 + 50% hP MIA-PaCa2

T1 sequence (Q05397 whole entry): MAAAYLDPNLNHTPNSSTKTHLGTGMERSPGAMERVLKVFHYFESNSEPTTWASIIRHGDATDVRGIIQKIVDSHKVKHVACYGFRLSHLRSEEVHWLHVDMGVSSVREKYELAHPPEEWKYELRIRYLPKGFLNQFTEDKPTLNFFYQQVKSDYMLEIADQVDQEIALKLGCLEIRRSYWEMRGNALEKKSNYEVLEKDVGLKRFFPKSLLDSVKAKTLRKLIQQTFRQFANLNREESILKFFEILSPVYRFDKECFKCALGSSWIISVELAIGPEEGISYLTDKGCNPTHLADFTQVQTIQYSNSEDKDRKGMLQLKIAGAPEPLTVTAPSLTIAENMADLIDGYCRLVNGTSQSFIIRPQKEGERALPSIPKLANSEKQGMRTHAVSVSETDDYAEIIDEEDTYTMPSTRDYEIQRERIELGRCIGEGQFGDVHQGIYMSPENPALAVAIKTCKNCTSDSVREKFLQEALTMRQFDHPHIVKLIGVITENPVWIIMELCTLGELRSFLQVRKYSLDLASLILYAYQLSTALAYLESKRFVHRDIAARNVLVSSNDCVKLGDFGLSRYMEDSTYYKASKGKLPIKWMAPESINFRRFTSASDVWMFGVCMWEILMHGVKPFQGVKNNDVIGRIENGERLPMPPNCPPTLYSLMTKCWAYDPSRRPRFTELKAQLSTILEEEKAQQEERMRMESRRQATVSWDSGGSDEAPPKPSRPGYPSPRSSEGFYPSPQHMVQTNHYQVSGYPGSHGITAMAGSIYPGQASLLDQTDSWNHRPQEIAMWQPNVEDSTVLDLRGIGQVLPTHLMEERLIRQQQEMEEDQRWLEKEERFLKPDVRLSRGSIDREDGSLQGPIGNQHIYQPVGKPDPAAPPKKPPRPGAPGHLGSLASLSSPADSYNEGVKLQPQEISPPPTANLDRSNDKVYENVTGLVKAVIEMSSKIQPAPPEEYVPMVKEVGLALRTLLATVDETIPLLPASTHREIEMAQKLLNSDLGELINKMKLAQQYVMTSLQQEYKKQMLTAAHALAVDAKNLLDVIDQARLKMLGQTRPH

COP(=O)(OC)c1ccc(Nc2ncc(C(F)(F)F)c(NCc3cccnc3N(C)S(C)(=O)=O)n2)cc1 [Example 36, Dimethyl [4-({4-[({2-[methyl(methylsulfonyl)amino]pyridin-3-yl}methyl)amino]-5-(trifluoromethyl)pyrimidin-2-yl}amino)phenyl]phosphonate]
IC50 [1]: < 1 µM | IC50 [2, 3]: < 1 µM

CCCOP(=O)(OCCC)c1ccc(Nc2ncc(C(F)(F)F)c(NCc3cccnc3N(C)S(C)(=O)=O)n2)cc1 [Example 37, dipropyl [4-({4-[({2-[methyl(methylsulfonyl)amino]pyridin-3-yl}methyl)amino]-5-(trifluoromethyl)pyrimidin-2-yl}amino)phenyl]phosphonate]
IC50 [1]: < 1 µM | IC50 [2, 3]: 1 to 10 µM

CC(C)OP(=O)(OC(C)C)c1ccc(Nc2ncc(C(F)(F)F)c(NCc3cccnc3N(C)S(C)(=O)=O)n2)cc1 [Example 38, dipropan-2-yl [4-({4-[({2-[methyl(methylsulfonyl)amino]pyridin-3-yl}methyl)amino]-5-(trifluoromethyl)pyrimidin-2-yl}amino)phenyl]phosphonate]
IC50 [1]: < 1 µM | IC50 [2, 3]: 1 to 10 µM

CCOP(=O)(OCC)c1cccc(Nc2ncc(C(F)(F)F)c(NCc3cccnc3N(C)S(C)(=O)=O)n2)c1 [Example 39, diethyl [3-({4-[({2-[methyl(methylsulfonyl)amino]pyridin-3-yl}methyl)amino]-5-(trifluoromethyl)pyrimidin-2-yl}amino)phenyl]phosphonate]
IC50 [1]: < 1 µM | IC50 [2, 3]: 1 to 10 µM

CCOP(=O)(O)c1ccc(Nc2ncc(C(F)(F)F)c(NCc3cccnc3N(C)S(C)(=O)=O)n2)cc1 [Example 40, Ethyl hydrogen [4-({4[({2-[methyl(methylsulfonyl)amino]pyridin-3-yl}methyl)amino]-5-(trifluoromethyl)pyrimidin-2-yl}amino)phenyl]phosphonate]
IC50 [1]: < 1 µM | IC50 [2, 4]: 1 to 10 µM | IC50 [2, 5]: 1 to 10 µM

CCOP(=O)(O)Cc1ccc(Nc2ncc(C(F)(F)F)c(NCc3cccnc3N(C)S(C)(=O)=O)n2)cc1 [Example 42, Ethyl hydrogen [4-({4-[({2-[methyl(methylsulfonyl)amino]pyridin-3-yl}methyl)amino]-5-(trifluoromethyl)pyrimidin-2-yl}amino)benzyl]phosphonate]
IC50 [1]: < 1 µM | IC50 [2, 4]: 1 to 10 µM | IC50 [2, 5]: 1 to 10 µM

CN(c1ncccc1CNc1nc(Nc2cccc(CP(=O)(O)O)c2)ncc1C(F)(F)F)S(C)(=O)=O [Example 43, [3-({4-[({2-[Methyl(methylsulfonyl)amino]pyridin-3-yl}methyl)amino]-5-(trifluoromethyl)pyrimidin-2-yl}amino)benzyl]phosphonic acid]
IC50 [1]: < 1 µM | IC50 [2, 4]: 1 to 10 µM | IC50 [2, 5]: 1 to 10 µM | IC50 [2, 3]: 1 to 10 µM

CCOP(=O)(O)Cc1cccc(Nc2ncc(C(F)(F)F)c(NCc3cccnc3N(C)S(C)(=O)=O)n2)c1 [Example 44, Ethyl hydrogen [3-({4[({2-[methyl(methylsulfonyl)amino]pyridin-3-yl}methyl)amino]-5-(trifluoromethyl)pyrimidin-2-yl}amino)benzyl]phosphonate]
IC50 [1]: < 1 µM | IC50 [2, 4]: > 10 µM | IC50 [2, 5]: > 10 µM

CCOP(C)(=O)Cc1ccc(Nc2ncc(C(F)(F)F)c(NCc3cccnc3N(C)S(C)(=O)=O)n2)cc1 (stereo not shown) [Example 45, Ethyl methyl[4-({4-[({2-[methyl(methylsulfonyl)amino]pyridin-3-yl}methyl)amino]-5-(trifluoromethyl)pyrimidin-2-yl}amino)benzyl]phosphinate]
IC50 [1]: < 1 µM | IC50 [2, 4]: < 1 µM | IC50 [2, 5]: < 1 µM

CCOP(=O)(Cc1ccc(Nc2ncc(C(F)(F)F)c(NCc3cccc([S+](C)[O-])c3)n2)cc1)OCC (stereo not shown) [Example 47, diethyl (4-{[4-{[3-(methylsulfinyl)benzyl]amino}-5-(trifluoromethyl)pyrimidin-2-yl]amino}benzyl)phosphonate]
IC50 [1]: < 1 µM | IC50 [2, 3]: 1 to 10 µM

CCOP(=O)(Cc1ccc(Nc2ncc(Cl)c(Nc3ccccc3C(=O)NC)n2)cc1)OCC [Example 48, Diethyl {4-[(5-chloro-4-{[2-(methylcarbamoyl)phenyl]amino}pyrimidin-2-yl)amino]benzyl}phosphonate]
IC50 [1]: < 1 µM | IC50 [2, 3]: 1 to 10 µM

CCOP(=O)(Cc1ccc(Nc2ncc(Br)c(Nc3ccccc3C(=O)NC)n2)cc1)OCC [Example 49, Diethyl {4-[(5-bromo-4-{[2-(methylcarbamoyl)phenyl]amino}pyrimidin-2-yl)amino]benzyl}phosphonate]
IC50 [1]: < 1 µM | IC50 [2, 4]: < 1 µM | IC50 [2, 5]: < 1 µM

CCOP(=O)(Cc1ccc(Nc2ncc(C(F)(F)F)c(NCc3cccnc3N(C)S(C)(=O)=O)n2)cc1)c1ccccc1 (stereo not shown) [Example 50, Ethyl [4-({4-[({2-[methyl(methylsulfonyl)amino]pyridin-3-yl}methyl)amino]-5-(trifluoromethyl)pyrimidin-2-yl}amino)benzyl]phenylphosphinate]
IC50 [1]: < 1 µM | IC50 [2, 3]: 1 to 10 µM

CCOP(=O)(Cc1cccc(Nc2ncc(C(F)(F)F)c(NCc3cccnc3N(C)S(C)(=O)=O)n2)c1)c1ccccc1 (stereo not shown) [Example 51, Ethyl [3-({4-[({2-[methyl(methylsulfonyl)amino]pyridin-3-yl}methyl)amino]-5-(trifluoromethyl)pyrimidin-2-yl}amino)benzyl]phenylphosphinate]
IC50 [1]: < 1 µM | IC50 [2, 3]: > 10 µM

CCOP(C)(=O)Cc1ccc(Nc2ncc(C(F)(F)F)c(Nc3ccccc3C(=O)NC)n2)c(OC)c1 (stereo not shown) [Example 52, Ethyl (3-methoxy-4-{[4-{[2-(methylcarbamoyl)phenyl]amino}-5-(trifluoromethyl)pyrimidin-2-yl]amino}benzyl)methylphosphinate]
IC50 [1]: < 1 µM | IC50 [2, 4]: < 1 µM | IC50 [2, 5]: < 1 µM

CCCCOP(=O)(Cc1cccc(Nc2ncc(C(F)(F)F)c(NCc3cccnc3N(C)S(C)(=O)=O)n2)c1)OCCCC [Example 54, dibutyl [3-({4-[({2-[methyl(methylsulfonyl)amino]pyridin-3-yl}methyl)amino]-5-(trifluoromethyl)pyrimidin-2-yl}amino)benzyl]phosphonate]
IC50 [1]: < 1 µM | IC50 [2, 3]: > 10 µM

CN(c1ncccc1CNc1nc(Nc2cccc(CP(=O)(OCC(C)(C)C)OCC(C)(C)C)c2)ncc1C(F)(F)F)S(C)(=O)=O [Example 55, bis(2,2-dimethylpropyl) [3-({4-[({2-[methyl(methylsulfonyl)amino]pyridin-3-yl}methyl)amino]-5-(trifluoromethyl)pyrimidin-2-yl}amino)benzyl]phosphonate]
IC50 [1]: < 1 µM | IC50 [2, 3]: > 10 µM

COP(=O)(Cc1cccc(Nc2ncc(C(F)(F)F)c(NCc3cccnc3N(C)S(C)(=O)=O)n2)c1)OC [Example 56, dimethyl [3-({4-[({2-[methyl(methylsulfonyl)amino]pyridin-3-yl}methyl)amino]-5-(trifluoromethyl)pyrimidin-2-yl}amino)benzyl]phosphonate]
IC50 [1]: < 1 µM | IC50 [2, 4]: < 1 µM | IC50 [2, 5]: < 1 µM

CCCOP(=O)(OCCC)c1cccc(Nc2ncc(C(F)(F)F)c(NCc3cccnc3N(C)S(C)(=O)=O)n2)c1 [Example 57, dipropyl [3-({4-[({2-[methyl(methylsulfonyl)amino]pyridin-3-yl}methyl)amino]-5-(trifluoromethyl)pyrimidin-2-yl}amino)phenyl]phosphonate]
IC50 [1]: < 1 µM | IC50 [2, 3]: 1 to 10 µM

CC(C)OP(=O)(OC(C)C)c1cccc(Nc2ncc(C(F)(F)F)c(NCc3cccnc3N(C)S(C)(=O)=O)n2)c1 [Example 58, dipropan-2-yl [3-({4-[({2-[methyl(methylsulfonyl)amino]pyridin-3-yl}methyl)amino]-5-(trifluoromethyl)pyrimidin-2-yl}amino)phenyl]phosphonate]
IC50 [1]: < 1 µM | IC50 [2, 3]: 1 to 10 µM

CN(c1ncccc1CNc1nc(Nc2cccc(P3(=O)OCC(C)(C)CO3)c2)ncc1C(F)(F)F)S(C)(=O)=O [Example 59, N-[3-({[2-{[3-(5,5-dimethyl-2-oxido-1,3,2-dioxaphosphinan-2-yl)phenyl]amino}-5-(trifluoromethyl)pyrimidin-4-yl]amino}methyl)pyridin-2-yl]-N-methylmethanesulfonamide]
IC50 [1]: < 1 µM | IC50 [2, 3]: 1 to 10 µM

CN(c1ncccc1CNc1nc(Nc2ccc(P3(=O)OCC(C)(C)CO3)cc2)ncc1C(F)(F)F)S(C)(=O)=O [Example 60, N-[3-({[2-{[4-(5,5-dimethyl-2-oxido-1,3,2-dioxaphosphinan-2-yl)phenyl]amino}-5-(trifluoromethyl)pyrimidin-4-yl]amino}methyl)pyridin-2-yl]-N-methylmethanesulfonamide]
IC50 [1]: < 1 µM | IC50 [2, 4]: < 1 µM | IC50 [2, 5]: < 1 µM | IC50 [2, 3]: < 1 µM

CCOP(C)(=O)Cc1ccc(Nc2ncc(C(F)(F)F)c(Nc3ccc(Br)c4c3C(=O)N(C)C4)n2)cc1 (stereo not shown) [Example 61, Ethyl [4-({4-[(7-bromo-2-methyl-3-oxo-2,3-dihydro-1H-isoindol-4-yl)amino]-5-(trifluoromethyl)pyrimidin-2-yl}amino)benzyl]methylphosphinate]
IC50 [1]: < 1 µM | IC50 [2, 4]: < 1 µM | IC50 [2, 5]: 1 to 10 µM

CCOP(=O)(Cc1ccc(Nc2ncc(C(F)(F)F)c(Nc3ccc(Br)c4c3C(=O)N(C)C4)n2)c(OC)c1)OCC [Example 62, Diethyl [4-({4-[(7-bromo-2-methyl-3-oxo-2,3-dihydro-1H-isoindol-4-yl)amino]-5-(trifluoromethyl)pyrimidin-2-yl}amino)-3-methoxybenzyl]phosphonate]
IC50 [1]: < 1 µM | IC50 [2, 4]: < 1 µM | IC50 [2, 5]: 1 to 10 µM
